According to US20100009970A1, “COMPOSITIONS AND METHODS FOR TREATMENT OF VIRAL DISEASES” (Combinatorx (Singapore) Pte. Ltd., priority 2008, published 2010):
Like-named read-outs stand apart in the source and are kept apart here.

Key:
[1] = test system: Huh7 cells expressing a subgenomic RNA replicon of Con1 (genotype 1b) sequence origin; assay: microbe, parasite or virus in culture; conditions: Hepatitis C virus
in vitro = conditions: human
[2] = Huh-7, read-out: IC50 (uM) [SG]
[3] = Huh-7, read-out: Max Effect@CC30 (inhibition)
[4] = Huh-7, read-out: Max Effect @CC30 (inhibition)

SMILES	IC90 ([1]; Huh-7) [µM]	IC50 [1, 2] [µM]	CC50 (in vitro; CC50 (uM) [SG]) [µM]	Emax [1, 3] [%]	further results
CSc1ccc(Oc2ccc(S(N)(=O)=O)cc2CN2CCC[C@H]2CN2CCCC2)cc1C [Compound 105, (S)-4-(3-methyl-4-(methylthio)phenoxy)-3-(((2-pyrrolidin-1-ylmethyl)pyrrolidin-1-yl)methyl)benzensulfonamide]	6.86	6.38	22.2	–	–
CSc1ccc(Oc2ccc(S(N)(=O)=O)cc2CN2CCN(C(C)C)CC2)cc1C [Compound 106, 3-((4-isopropylpiperazin-1-yl)methyl)-4-(3-methyl-4-(methylthio)phenoxy)benzenesulfonamide]	8.21	3.57	24.3	–	–
CSc1ccc(N2CN(C)Cc3cc(S(N)(=O)=O)ccc32)cc1C [Compound 107, 3-methyl-1-(3-methyl-4-(methylthio)phenyl)-1,2,3,4-tetrahydroquinazoline-6-sulfonamide]	12.8	4.84	> 50	–	–
CSc1ccc(Nc2ccc(S(N)(=O)=O)cc2CN(C)C)cc1C [Compound 108, 3-((dimethylamino)methyl)-4-(3-methyl-4-(methylthio)phenylamino)benzensulfonamide]	17	2.64	44.9	–	–
CSc1ccc(Oc2ccc(S(N)(=O)=O)cc2CN2C[C@@H](O)C[C@@H]2CO)cc1C [Compound 110, 3-(((2S,4R)-4-hydroxy-2-(hydroxymethyl)pyrrolidin-1-yl)methyl)-4-((3-methyl-4-methylthio)phenoxy)benzenesulfonamide]	–	13.1	> 50	–	–
CSc1ccc(Oc2ccc(S(N)(=O)=O)cc2CN2CCNCC2)cc1C [Compound 111, 4-(3-methyl-4-(methylthio)phenoxy)-3-(piperazin-1-ylmethyl)benzenesulfonamide]	22.6	7.12	46.3	–	–
CC(C)C1CC[C@@H](c2ccc(Cl)c(Cl)c2)c2ccc(C(N)=O)cc21 (stereo partly drawn) [Isopropyl Sertraline A-Ring Carboxamide, (S)-5-(3,4-dichlorophenyl)-8-isopropyl-5,6,7,8-tetrahydronaphthalene-2-carboxamide]	–	38.9	> 50	–	–
CC(C)C1CCC(c2ccc(Cl)c(Cl)c2)c2ccccc21 (stereo not shown) [Isopropyl Sertraline, 1-(3,4-dichlorophenyl)-4-isopropyl-1,2,3,4-tetrahydronaphthalene]	32.1	9.25 ± 0.95	> 50	97.96 ± 0.06	–
CC(=O)Nc1ccc2c(c1)C(C(C)C)CCC2c1ccc(Cl)c(Cl)c1 (stereo not shown) [N-(5-(3,4-dichlorophenyl)-8-isopropyl-5,6,7,8-tetrahydronaphthalen-2-yl)acetamide]	37.7	15.8	> 50	–	–
CC(=O)Nc1ccc2c(c1)[C@@H](N(C)CCO)CC[C@H]2c1ccc(Cl)c(Cl)c1 [N-((5S,8S)-5-(3,4-dichlorophenyl)-8-((2-hydroxyethyl)(methyl)amino)-5,6,7,8-tetrahydronaphthalen-2-yl)acetamide]	–	13.2	44.9	–	–
CN(C)[C@H]1CC[C@@H](c2ccc(Cl)c(Cl)c2)c2ccc(NC(=O)c3ccccc3)cc21 [N-((5S,8S)-5-(3,4-dichlorophenyl)-8-(dimethylamino)-5,6,7,8-tetrahydronaphthalen-2-yl)benzamide]	–	9.41	12.5	–	–
CN[C@H]1CC[C@@H](c2ccc(Cl)c(Cl)c2)c2ccc(NS(=O)(=O)c3cn(C)cn3)cc21 [N-((5S,8S)-5-(3,4-dichlorophenyl)-8-(methylamino)-5,6,7,8-tetrahydronaphthalen-2-yl)-1-methyl-1H-imidazole-4-sulfonamide]	–	7.76	13.6	20.2	–
CN[C@H]1CC[C@@H](c2ccc(Cl)c(Cl)c2)c2ccc(N(C)C(C)=O)cc21 [N-((5S,8S)-5-(3,4-dichlorophenyl)-8-(methylamino)-5,6,7,8-tetrahydronaphthalen-2-yl)-N-methylacetamide]	10.7	3.79	14.6	–	–
CN[C@H]1CC[C@@H](c2ccc(Cl)c(Cl)c2)c2ccc(NS(=O)(=O)c3ccccc3)cc21 [N-((5S,8S)-5-(3,4-dichlorophenyl)-8-(methylamino)-5,6,7,8-tetrahydronaphthalen-2-yl)benzenesulfonamide]	3.83	3.48	3.91	–	IC50 ([1]; Huh-7): 3.48 µM; CC50 (in vitro; CC50 (uM)): 3.91 µM
CCCCS(=O)(=O)Nc1ccc2c(c1)[C@@H](NC)CC[C@H]2c1ccc(Cl)c(Cl)c1 [N-((5S,8S)-5-(3,4-dichlorophenyl)-8-(methylamino)-5,6,7,8-tetrahydronaphthalen-2-yl)butane-1-sulfonamide]	–	6.07	3.63	–	–
CN[C@H]1CC[C@@H](c2ccc(Cl)c(Cl)c2)c2ccc(NC(=O)C3CCCC3)cc21 [N-((5S,8S)-5-(3,4-dichlorophenyl)-8-(methylamino)-5,6,7,8-tetrahydronaphthalen-2-yl)cyclopentanecarboxamide]	5.89	4.02	7	22.9	IC50 ([1]; Huh-7): 4.02 µM; CC50 (in vitro; CC50 (uM)): 7 µM
CC(=O)NCc1ccc2c(c1)[C@@H](N(C)C)CC[C@H]2c1ccc(Cl)c(Cl)c1 [N-(((5S,8S)-5-(3,4-dichlorophenyl)-8-(dimethylamino)-5,6,7,8-tetrahydronaphthalen-2-yl)methyl)acetamide]	9.72	4.45	19.1	92	–
CN(C1CC1)[C@H]1CC[C@@H](c2ccc(Cl)c(Cl)c2)c2ccccc21 [N-Cyclopropyl Sertraline, (1S,4S)—N-cyclopropyl-4-(3,4-dichlorophenyl)-N-methyl-1,2,3,4-tetrahydronaphthalen-1-amine]	34.2	14.5	> 50	99	–
CN(CCO)[C@H]1CC[C@@H](c2ccc(Cl)c(Cl)c2)c2ccccc21 [N-Ethanol Sertraline, 2-(((1S,4S)-4-(3,4-dichlorophenyl)-1,2,3,4-tetrahydronaphthalen-1-yl)(methyl)amino)ethanol]	21.9	7.8	49.8	93	–
CN[C@H]1CC[C@@H](c2ccc(Cl)c(Cl)c2)c2ccc([N+](=O)[O-])cc21 [Nitro Sertraline, (1S,4S)-4-(3,4-dichlorophenyl)-N-methyl-7-nitro-1,2,3,4-tetrahydronaphthalen-1-amine]	–	6.46	8.03	27	Emax ([1]; GETYPE1B, Huh-7, 72 h, read-out: Max Effect @CC30 (inhibition)): 27%; IC50 ([1]; Huh-7, 72 h): 6.46 µM; CC50 (in vitro; CC50 (uM)): 8.03 µM
CN[C@H]1CC[C@@H](c2ccc(Cl)c(Cl)c2)c2ccc(C(N)=O)cc21 [Sertraline A ring carboxamide, (5S,8S)-5-(3,4-dichlorophenyl)-8-(methylamino)-5,6,7,8-tetrahydronaphthalene-2-carboxamide]	–	1.8	16.2	–	–
CN[C@H]1CC[C@@H](c2ccc(Cl)c(Cl)c2)c2ccc(C(=O)Nc3ccccc3)cc21 [Sertraline A-Ring Benzamide, (5S,8S)-5-(3,4-dichlorophenyl)-8-(methylamino)-N-phenyl-5,6,7,8-tetrahydronaphthalene-2-carboxamide]	–	2.73	3.89	48.6	–
CNC(=O)c1ccc2c(c1)[C@@H](NC)CC[C@H]2c1ccc(Cl)c(Cl)c1 [Sertraline A-Ring Methyl Carboxamide, (5S,8S)-5-(3,4-dichlorophenyl)-N-methyl-8-(methylamino)-5,6,7,8-tetrahydronaphthalene-2-carboxamide]	–	2.82	11.1	81.2	–
CN[C@H]1CC[C@@H](c2ccc(Cl)c(Cl)c2)c2ccc(CSC)cc21 [Sertraline A-Ring Methylsulfide, (1S,4S)-4-(3,4-dichlorophenyl)-N-methyl-7-(methylthiomethyl)-1,2,3,4-tetrahydronaphthalen-1-amine]	–	4.18	6.18	14.8	–
CN[C@H]1CC[C@@H](c2ccc(Cl)c(Cl)c2)c2ccc(N(C)C)cc21 [Sertraline A-Ring N,N-Dimethylamine, (1S,4S)-4-(3,4-dichlorophenyl)-N1,N7,N7-trimethyl-1,2,3,4-tetrahydronaphthalene-1,7-diamine]	5.82	3.52	6.22	35.1	IC50 ([1]; Huh-7): 3.52 µM; CC50 (in vitro; CC50 (uM)): 6.22 µM
CN[C@H]1CC[C@@H](c2ccc(Cl)c(Cl)c2)c2ccc(NC(=O)c3ccccc3)cc21 [Sertraline A-Ring Reverse Benzamide, N-((5S,8S)-5-(3,4-dichlorophenyl)-8-(methylamino)-5,6,7,8-tetrahydronaphthalen-2-yl)benzamide]	3.88	2.94	3.67	62.2	IC50 ([1]; Huh-7): 2.94 µM; CC50 (in vitro; CC50 (uM)): 3.67 µM
CN[C@H]1CC[C@@H](c2ccc(Cl)c(Cl)c2)c2ccc(NC(C)=O)cc21 [Sertraline A-Ring Reverse Carboxamide, N-((5S,8S)-5-(3,4-dichlorophenyl)-8-(methylamino)-5,6,7,8-tetrahydronaphthalen-2-yl)acetamide]	7.26	0.91 ± 0.08	12 ± 1.77	83 ± 6.55	IC50 ([1]; Huh-7): 0.85 µM; Emax [1, 4]: 87.7%; Emax ([1]; Huh-7, read-out: Max effect @CC30 (%)): 83 ± 6.55%; IC50 ([1]; Huh-7, read-out: SA IC50 (uM)): 0.91 ± 0.08 µM; CC50 (in vitro; CC50 (uM)): 10.7 µM
CCCCC(=O)Nc1ccc2c(c1)[C@@H](NC)CC[C@H]2c1ccc(Cl)c(Cl)c1 [Sertraline A-Ring Reverse Pentanamide, N-((5S,8S)-5-(3,4-dichlorophenyl)-8-(methylamino)-5,6,7,8-tetrahydronaphthalen-2-yl)pentanamide]	5.03	3.67	4.32	33.1	IC50 ([1]; Huh-7): 3.68 µM; Emax [1, 4]: 33.1%; CC50 (in vitro; CC50 (uM)): 4.32 µM
